Patent publication US20090281121A1, “SUBSTITUTED 8-PIPERIDINYL-2-PYRIDINYL-PYRIMIDO[1,2-a] PYRIMIDIN-6-ONE AND 8-PIPERIDINYL-2-PYRIMIDINYL-PYRIMIDO[1,2-a] PYRIMIDIN-6-ONE DERIVATIVES” (SANOFI-AVENTIS, priority 2006, published 2009)
Counter-ions that a name gives are not always drawn.

Assays:
GSK3β = GSK3β (Homo sapiens, UniProt P49841); assay: Inhibitory activity against GSK3β (33P-ATP phosphorylation of prephosphorylated GS1 peptide, two protocols); type: biochemical; settings: first or second protocol not specified
Experimental: Two different protocols can be used.
In a first protocol: 7.5 μM of prephosphorylated GS1 peptide and 10 μM ATP (containing 300,000 cpm of 33P-ATP) were incubated in 25 mM Tris-HCl, pH 7.5, 0.6 mM DTT, 6 mM MgCl2, 0.6 mM EGTA, 0.05 mg/ml BSA buffer for 1 hour at room temperature in the presence of GSK3beta (total reaction volume: 100 microliters).
In a second protocol: 4.1 μM of prephosphorylated GS1 peptide and 42 μM ATP (containing 260,000 cpm 33P-ATP) were incubated in 80 mM Mes-NaOH, pH 6.5, 1 mM Mg acetate, 0.5 mM EGTA, 5 mM 2-mercaptoethanol, 0.02% Tween 20, 10% glycerol buffer for 2 hours at room temperature in the presence of GSK3beta. Inhibitors were solubilized in DMSO (final solvent concentration in the reaction medium, 1%).
The reaction was stopped with 100 microliters of a solution made of 25 g polyphosphoric acid (85% P2O5), 126 ml 85% H3PO4, H2O to 500 ml and then diluted to 1:100 before use. An aliquot of the reaction mixture was then transferred to Whatman P81 cation exchange filters and rinsed with the solution described above. Incorporated 33P radioactivity was determined by liquid scintillation spectrometry.
The phosphorylated GS-1 peptide had the following sequence NH2-[…](P)EDEE-COOH. (Woodgett, J. R. (1989) Analytical Biochemistry 180, 237-241.

Chain of GSK3β (P49841 whole entry): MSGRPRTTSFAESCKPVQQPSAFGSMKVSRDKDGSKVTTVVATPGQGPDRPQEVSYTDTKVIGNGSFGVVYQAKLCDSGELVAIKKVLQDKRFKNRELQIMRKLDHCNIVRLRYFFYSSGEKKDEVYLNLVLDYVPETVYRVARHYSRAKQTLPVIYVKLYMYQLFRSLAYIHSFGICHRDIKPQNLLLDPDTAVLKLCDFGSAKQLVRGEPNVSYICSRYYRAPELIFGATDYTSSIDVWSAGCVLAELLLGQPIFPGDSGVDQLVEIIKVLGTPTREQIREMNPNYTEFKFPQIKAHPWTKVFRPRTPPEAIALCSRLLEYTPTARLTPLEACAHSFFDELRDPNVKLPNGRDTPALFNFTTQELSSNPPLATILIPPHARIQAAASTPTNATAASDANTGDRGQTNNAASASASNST

Row | Compound | IC50 (GSK3β) [nM] | melting point [°C]
1 | O=C(CN1c2nc(-c3ccncc3)cc(=O)n2CCC1C1CCNCC1)c1ccccc1 (racemic) [Compound No. 3, (+/−)-9-(2-Oxo-2-phenylethyl)-8-(4-piperidinyl)-2-(4-pyridinyl)-6,7,8,9-tetrahydro-4H-pyrimido[1,2-a]pyrimidin-4-one] | 12 | –
2 | O=C(CN1c2nc(-c3ccncc3)cc(=O)n2CCC1C1CCNCC1)c1cccc(Br)c1 (racemic) (as salt: hydrochloride) [compound 8, (−)9-[2-Oxo-2-(3-bromo-phenyl)ethyl]-8-(4-piperidinyl)-2-(4-pyridinyl)-6,7,8,9-tetrahydro-4H-pyrimido[1,2-a]pyrimidin-4-one] | – | 255 to 257
3 | COc1cc(F)ccc1CCN1c2nc(-c3ccncc3)cc(=O)n2CCC1C1CCNCC1 (racemic) [compound 7, (+/−)9-[2-(4-fluoro-2-methoxy-phenyl)ethyl]-8-(4-piperidinyl)-2-(4-pyridinyl)-6,7,8,9-tetrahydro-4H-pyrimido[1,2-a]pyrimidin-4-one] | – | 270 to 272
